Reference: patent publication US20110034434A1, “PRODRUGS OF FUSED HETEROCYCLIC INHIBITORS OF D-AMINO ACID OXIDASE” (SEPRACOR INC., priority 2009, published 2011)

How the values were obtained:
D-serine = test: PK-PD evaluation in rats: D-serine levels in cerebellum after oral dosing; type: in vivo; conditions: rat cerebellum, 6 hours after PO dosing, dose normalized to 10 mg/kg of the acid; mean ± spread (n)
Procedure: Rats (Harlan male Sprague) (N=3) were dosed orally with an amount of test compound, suspended in 45% (w/v) hydroxy-β-cyclodextrin vehicle, dose normalized to 10 mg/kg of the corresponding carboxylic acid. Additional male cannulated rats (N=3) were dosed orally with the parent carboxylic acid, suspended in 45% (w/v) hydroxy-β-cyclodextrin vehicle, at 10 mg/kg. Animals were sacrificed at pre-determined time points (e.g., 0.5, 2 and/or 6 hours post administration) with an N=3 at each time point. At sacrifice, trunk blood was collected into tubes containing potassium EDTA, which were then centrifuged to permit isolation of plasma. The cerebellum was dissected from each animal. Plasma and cerebellum samples were stored at −80° C. until samples were analyzed using a SCIEX API2000 or SCIEX API5000 LC/MS/MS. Samples were analyzed for the amount of corresponding parent acid, D-serine, and/or the amount of test compound.
Conversion of test compounds to 4H-furo[3,2-b]pyrrole-5-carboxylic acid (“acid”; 77) in rats was evaluated according to General Procedure 12. 4H-furo[3,2-b]pyrrole-5-carboxylic acid and D-serine levels in plasma and cerebellum were measured. Animals were sacrificed at 6 hours post administration. In Table 6, “[D-serine] cerebellum” refers to D-serine levels, in nmol/g, in the rat cerebellum. In Table 6, “[acid] cerebellum” refers to the concentration, in μM, of the 4H-furo[3,2-b]pyrrole-5-carboxylic acid in the cerebellum. In Table 6, “[acid] plasma” refers to the concentration, in μM, of the 4H-furo[3,2-b]pyrrole-5-carboxylic acid in the plasma. The row labeled “acid”, denotes the data obtained from dosing 4H-furo[3,2-b]pyrrole-5-carboxylic acid. The row labeled “vehicle” denotes the data obtained from dosing vehicle, and the remaining row in the table denote the data obtained from dosing the test compounds.

[1] = Hydrolysis rate of test compounds in pH 7.4 and 2.0 aqueous solution; type: physicochemical; conditions: HPLC; for Hydrolysis rate at pH 7.4: 0.05 M sodium phosphate buffer pH 7.4, over 6 hours; for Hydrolysis rate at pH 2.0: water adjusted with phosphoric acid to pH 2.0, over 2 hours
Procedure: 10 mM DMSO solutions of test compounds were diluted with a 0.05 M sodium phosphate buffer (pH 7.4) or water adjusted with phosphoric acid to pH 2.0, with a final concentration of 0.013 mg/mL. Samples were analyzed over either 2 or 6 hours, by HPLC.
The amount of test compound and the corresponding acid were determined. The rate of conversion of the test compound was calculated based on formation of the corresponding acid and loss of parent.
The rate of hydrolysis of test compounds to 4H-furo[3,2-b]pyrrole-5-carboxylic acid was evaluated in pH 7.4 aqueous solution over 6 hours, and in pH 2.0 aqueous solution over 2 hours, according to General Procedure 14.

Structure (SMILES)	[D-serine] cerebellum (D-serine)	Hydrolysis rate at pH 7.4 [1]	Hydrolysis rate at pH 2.0 [1]
CCOC(=O)c1cc2occc2n1COCCOC(=O)C(N)C(C)C (stereo in doubt) [compound 68, (S)-ethyl 4-((2-(2-amino-3-methylbutanoyloxy)ethoxy)methyl)-4H-furo[3,2-b]pyrrole-5-carboxylate]	5 ± 0.4(3) nmol/g		
CC1(C)OC(=O)c2cc3occc3n21 [compound 2, 11,11-dimethyl-5,10-dioxa-1-azatricyclo[6.3.0.0^2,6]undeca-2(6),3,7-trien-9-one]	17 ± 1.0(3) nmol/g		
CC1OC(=O)c2cc3occc3n21 (centres unmarked) [compound 3, 11-methyl-5,10-dioxa-1-azatricyclo[6.3.0.0^2,6]undeca-2(6),3,7-trien-9-one]	17 ± 1.0(3) nmol/g		
CCCOC(=O)c1cc2occc2[nH]1 [compound 4, propyl 4H-furo[3,2-b]pyrrole-5-carboxylate]	20 ± 1.3(3) nmol/g		
CCCCOC(=O)c1cc2occc2[nH]1 [compound 5, butyl 4H-furo[3,2-b]pyrrole-5-carboxylate]	18 ± 1.2(3) nmol/g		
CCCCCCCOC(=O)c1cc2occc2[nH]1 [compound 6, heptyl 4H-furo[3,2-b]pyrrole-5-carboxylate]	18 ± 0.7(3) nmol/g		
CC(C)COC(=O)c1cc2occc2[nH]1 [compound 7, isobutyl 4H-furo[3,2-b]pyrrole-5-carboxylate]	19 ± 1.5(3) nmol/g		
CC(C)CCCOC(=O)c1cc2occc2[nH]1 [compound 8, 4-methylpentyl 4H-furo[3,2-b]pyrrole-5-carboxylate]	20 ± 1.5(3) nmol/g		
O=C(OCc1ccccc1)c1cc2occc2[nH]1 [compound 9, benzyl 4H-furo[3,2-b]pyrrole-5-carboxylate]	21 ± 0.4(3) nmol/g		
O=C(OCC1CCCO1)c1cc2occc2[nH]1 (centres unmarked) [compound 10, (tetrahydrofuran-2-yl)methyl 4H-furo[3,2-b]pyrrole-5-carboxylate]	19 ± 2.0(6) nmol/g	No hydrolysis	No hydrolysis
O=C(OCC(=O)N1CCC1)c1cc2occc2[nH]1 [compound 19, 2-(azetidin-1-yl)-2-oxoethyl 4H-furo[3,2-b]pyrrole-5-carboxylate]	17 ± 0.7(3) nmol/g	No hydrolysis	No hydrolysis
CCN(CC)C(=O)COC(=O)c1cc2occc2[nH]1 [compound 23, 2-(diethylamino)-2-oxoethyl 4H-furo[3,2-b]pyrrole-5-carboxylate]	18 ± 2.3(3) nmol/g		
O=C(OCCn1ccnc1)c1cc2occc2[nH]1 [compound 27, 2-(1H-imidazol-1-yl)ethyl 4H-furo[3,2-b]pyrrole-5-carboxylate]	17 ± 0.6(3) nmol/g		
O=C(OCn1ccnc1)c1cc2occc2[nH]1 [compound 28, (1H-imidazol-1-yl)methyl 4H-furo[3,2-b]pyrrole-5-carboxylate]	19 ± 1.9(3) nmol/g		
CN(C)CCOC(=O)c1cc2occc2[nH]1 [compound 32, 2-(dimethylamino)ethyl 4H-furo[3,2-b]pyrrole-5-carboxylate]	9 ± 0.7(3) nmol/g		
CC(=O)OC(C)OC(=O)c1cc2occc2[nH]1 (centres unmarked) [compound 33, 1-acetoxyethyl 4H-furo[3,2-b]pyrrole-5-carboxylate]	19 ± 1.4(3) nmol/g		
CCC(=O)OC(C)OC(=O)c1cc2occc2[nH]1 (centres unmarked) [compound 34, 1-(propionyloxy)ethyl 4H-furo[3,2-b]pyrrole-5-carboxylate]	20 ± 1.7(3) nmol/g		
CC(C)OC(=O)OC(C)OC(=O)c1cc2occc2[nH]1 (centres unmarked) [compound 36, 1-(isopropoxycarbonyloxy)ethyl 4H-furo[3,2-b]pyrrole-5-carboxylate]	20 ± 2.9(6) nmol/g		
CC(OC(=O)OC(C)(C)C)OC(=O)c1cc2occc2[nH]1 (centres unmarked) [compound 37, 1-(tert-butoxycarbonyloxy)ethyl 4H-furo[3,2-b]pyrrole-5-carboxylate]	18 ± 1.1(3) nmol/g		
CC(=O)OCOC(=O)c1cc2occc2[nH]1 [compound 38, acetoxymethyl 4H-furo[3,2-b]pyrrole-5-carboxylate]	19 ± 4.4(4) nmol/g		

Structure (SMILES)	[D-serine] cerebellum (D-serine)	Hydrolysis rate at pH 7.4 [1]	Hydrolysis rate at pH 2.0 [1]
CC(=O)OC(OC(=O)c1cc2occc2[nH]1)C(C)C (centres unmarked) [compound 40, 1-acetoxy-2-methylpropyl 4H-furo[3,2-b]pyrrole-5-carboxylate]	22 ± 2.7(3) nmol/g		
O=C(OCOC(=O)c1cc2occc2[nH]1)c1cc2occc2[nH]1 [compound 41, methylene bis(4H-furo[3,2-b]pyrrole-5-carboxylate)]	14 ± 0.2(3) nmol/g		
CCC(=O)OCOC(=O)c1cc2occc2[nH]1 [compound 42, propionyloxymethyl 4H-furo[3,2-b]pyrrole-5-carboxylate]	20 ± 1.5(3) nmol/g		
CCCC(=O)OC(C)OC(=O)c1cc2occc2[nH]1 (centres unmarked) [compound 44, 1-(butyryloxy)ethyl 4H-furo[3,2-b]pyrrole-5-carboxylate]	21 ± 1.3(3) nmol/g		
CCC(OC(C)=O)OC(=O)c1cc2occc2[nH]1 (centres unmarked) [compound 45, 1-acetoxypropyl 4H-furo[3,2-b]pyrrole-5-carboxylate]	22 ± 1.9(3) nmol/g		
CC(C)C(=O)OCOC(=O)c1cc2occc2[nH]1 [compound 47, isobutyryloxymethyl 4H-furo[3,2-b]pyrrole-5-carboxylate]	22 ± 3.0(3) nmol/g		
O=C(OCCOC(=O)c1cc2occc2[nH]1)c1cc2occc2[nH]1 [compound 55, ethane-1,2-diyl bis(4H-furo[3,2-b]pyrrole-5-carboxylate)]	13 ± 1.1(3) nmol/g		
NC(=O)c1cc2occc2[nH]1 [compound 56, 4H-furo[3,2-b]pyrrole-5-carboxamide]	7 ± 0.7(2) nmol/g		
NC(=O)CNC(=O)c1cc2occc2[nH]1 [compound 57, N-(2-amino-2-oxoethyl)-4H-furo[3,2-b]pyrrole-5-carboxamide]	5 ± 0.5(3) nmol/g		
CN1CCN(C(=O)c2cc3occc3[nH]2)CC1 [compound 58, (4H-furo[3,2-b]pyrrol-5-yl)(4-methylpiperazin-1-yl)methanone]	5 ± 0.3(3) nmol/g		
CCOC(=O)c1cc2occc2n1COC(=O)c1ccccc1 [compound 59, ethyl 4-(benzoyloxymethyl)-4H-furo[3,2-b]pyrrole-5-carboxylate]	11 ± 1.9(3) nmol/g		
O=C(OCn1c(C(=O)O)cc2occc21)c1ccccc1 [compound 60, 4-(benzoyloxymethyl)-4H-furo[3,2-b]pyrrole-5-carboxylic acid]	13 ± 1.1(3) nmol/g		
CCOC(=O)c1cc2occc2n1COC(C)=O [compound 64, ethyl 4-(acetoxymethyl)-4H-furo[3,2-b]pyrrole-5-carboxylate]	14 ± 3.6(3) nmol/g		
CCOC(=O)c1cc2occc2n1COC(=O)C(C)C [compound 65, ethyl 4-(isobutyryloxymethyl)-4H-furo[3,2-b]pyrrole-5-carboxylate]	11 ± 2.6(3) nmol/g		
CC(=O)OCn1c(C(=O)O)cc2occc21 [compound 66, 4-(acetoxymethyl)-4H-furo[3,2-b]pyrrole-5-carboxylic acid]	12 ± 0.7(3) nmol/g		
CC(C)C(=O)OCn1c(C(=O)O)cc2occc21 [compound 67, 4-(isobutyryloxymethyl)-4H-furo[3,2-b]pyrrole-5-carboxylic acid]	14 ± 0.9(3) nmol/g		
CC(=O)OCOC(=O)c1cc2occc2n1COC(C)=O [compound 71, acetoxymethyl 4-(acetoxymethyl)-4H-furo[3,2-b]pyrrole-5-carboxylate]	14 ± 0.9(3) nmol/g		
O=C1OCC(OC(=O)c2cc3occc3[nH]2)O1 (centres unmarked) [compound 73, 2-oxo-1,3-dioxolan-4-yl 4H-furo[3,2-b]pyrrole-5-carboxylate]	24 ± 2.0(2) nmol/g		
O=C(OC1OC(=O)c2ccccc21)c1cc2occc2[nH]1 (centres unmarked) [compound 74, 3-oxo-1,3-dihydroisobenzofuran-1-yl 4H-furo[3,2-b]pyrrole-5-carboxylate]	13 ± 1.2(3) nmol/g		
O=C(OCCl)c1cc2occc2[nH]1 [compound 76, chloromethyl 4H-furo[3,2-b]pyrrole-5-carboxylate]	12 ± 1.5(3) nmol/g		
